For data set [1] the following is noted: prior-art compound, in words; cited from earlier work.
Data set [2] relates to coronary blood flow. The conditions noted are these: prior-art compound, in words; cited from earlier work.
In data set [3] the test system is coronary blood flow. Put plainly: Volume rate of the coronary blood flow in anesthetized cats, intravenous. It is filed as in vivo. The conditions noted are these: for Effective period / Increase in coronary blood flow: intravenous.
Data set [4] deals with spontaneously hypertensive rats. Put plainly: Systolic arterial pressure in awake spontaneously hypertensive female rats of the Okamoto-Aoki line, intragastric. It is filed as in vivo. The conditions noted are these: for Hypotensive effect, %, upon administration to spontaneously hypertensive rats: into the stomach. The protocol: Investigation of the pharmacological action of 2,6-dimethyl-3,5-dicarbomethoxy-4-(o-difluoromethylthiophenyl)-1,4-dihydropyridine upon parameters characterizing the performance of the cardiovascular system has been carried out in anesthetized cats, as well as in rats.
In the conditions as stated above, the proposed compound exceeded the SKF-24260 compound approximately 3 times with respect to both hypotensive activity and active period (see Table 1).
24 hours after administration of the proposed compound in a dose of 10 mg/kg, the systolic arterial pressure was down by a further 21.4±2.7%.

The subject of data set [5] is white mice. The conditions noted are these: prior-art compound, in words; cited from earlier work.
Data set [6] relates to arterial blood pressure of anesthetized cats. The settings on record: prior-art compound, in words; cited from earlier work.
Data set [7] shares this test system. The data set is described as follows: Reduction of arterial blood pressure by 30 percent (ED30) in anesthetized cats. In kind it is in vivo. The conditions noted are these: for ED30: Felis catus, read-out: ED30 (effective dose that reduces arterial blood pressure by 30 percent).
The nature of data set [8]: Acute toxicity in breedless white mice, intraperitoneal. The settings on record: mouse, in vivo, ip; intraperitoneal administration to white mice. In kind it is in vivo. The source says: (§1) In experiments carried out in breedless white mice, the proposed compound, administered intraperitoneally, has been investigated for acute toxicity.
The nature of the next data set: Solubility. In kind it is physicochemical.
A short description of the next data set: Light stability. In kind it is physicochemical. The conditions noted are these: in words.
Data set [9] relates to white mice. Put plainly: Acute toxicity in breedless white mice, intraperitoneal. In kind it is in vivo. The settings on record: in words.
From the text: as §1

We go through three compounds from US4435574A, “2,6-Dimethyl-3,5-dicarbomethoxy-4-(ortho -di-fluoromethylthiophenyl)-1,4-dihydropyridine” (priority 1981, dated 1984).

By LD50 is commonly meant the dose at which mortality reaches 50%. Low values mean greater toxicity, high ones lower toxicity.

Values joined by “and” are separate entries in the source; they are usually repeats but may differ in a detail not shown here. Equal values may be shown once. “Also recorded” adds a separate entry of the source. Read-outs that look alike come from different tables or passages of the source.

Take `COC(=O)C1=C(C)NC(C)=C(C(=O)OC)C1c1ccccc1[N+](=O)[O-]` [Adalate, 2,6-dimethyl-3,5-dicarbomethoxy-4-(o-nitrophenyl)-1,4-dihydropyridine, reference compound]: in data set [1], the Sensitivity to light result is “highly sensitive to light, decomposing rapidly in the presence of light”. Moreover, the Coronarodilating activity result in the data set on coronary blood flow [2] is given as “high coronarodilating activity”. Besides, in the data set with coronary blood flow [3] (0.05 mg/kg), the Effective period is given as 35 min and the “Increase in coronary blood flow” value was 90%.

Turning to `CCOC(=O)C1=C(C)NC(C)=C(C(=O)OCC)C1c1ccccc1C(F)(F)F` [SKF-24260, 2,6-dimethyl-3,5-dicarbothoxy-4-(o-trifluoromethylphenyl)-1,4-dihydropyridine, reference compound], in data set [4] (10 mg/kg, 24 hours, result in words), the “Systolic arterial pressure after 24 hours” value is recorded as “return to the initial value or increase above the initial level; also recorded: Initial”. The “Hypotensive effect, %, upon administration to spontaneously hypertensive rats” value in [4] (after 6 hours, 1 mg/kg) was 6.0%; in data set [4] (after 6 hours, 10 mg/kg), 15.8%. The Toxicity result in the data set on white mice [5] is given as “high toxicity”. In addition, in [6], the “Duration of hypotensive effect” value is “short duration”. Moreover, the Hypotensive activity result in data set [6] is listed as “appreciable hypotensive activity”. The ED30 in data set [7] was 0.022 mg/kg. For the same compound, the median lethal dose (LD50) in data set [8] was 38.5 mg/kg.

Take `COC(=O)C1=C(C)NC(C)=C(C(=O)OC)C1c1ccccc1SC(F)F` [Proposed compound, 2,6-dimethyl-3,5-dicarbomethoxy-4-(o-difluoromethylthiophenyl)-1,4-dihydropyridine]: in data set [4] (1 mg/kg and 10 mg/kg into the stomach, in words), the Systolic arterial pressure entry is listed as “dropped considerably”. For the same compound, the “Hypotensive effect, %, upon administration to spontaneously hypertensive rats” value in [4] (after 6 hours, 1 mg/kg) was 19.5%; in data set [4] (after 6 hours, 10 mg/kg) it was 54.8%; in [4] (after 24 hours, 10 mg/kg, 10 mg/kg), 21.4±2.7% and 21.4%. For the same compound, the “Duration of hypotensive activity” value in data set [4] (in words) was “prolonged duration; also recorded: highly prolonged hypotensive activity”. Further, the “Duration of hypotensive action (active period) relative to SKF-24260” value in [4] (spontaneously hypertensive rats) is “approximately 3 times”. The “Solubility in organic solvents” value in “Solubility” (organic solvents) is given as “soluble in organic solvents”. Besides, the Solubility in water result in “Solubility” (water) is on record as “insoluble in water”. The ED30 in [7] worked out at 0.019 mg/kg. For the same compound, in [7] (acute experiments, 50% aqueous dimethylacetamide, in words), the “Hypotensive effect compared with SKF-24260” value was “same hypotensive effect”. Also, the Sensitivity to light result in the data set “Light stability” is “light-resistant”. The same compound displayed an LD50 in [8] of 93 mg/kg. Further, in the data set with white mice [9], the Toxicity result is listed as “low toxicity”. Besides, the “Toxicity compared with SKF-24260” value with white mice [9] (intraperitoneal, mice) was “considerably lower; also recorded: considerably less toxic”. In addition, the Effective period in the data set on coronary blood flow [3] (0.05 mg/kg) stood at 30 min; with coronary blood flow [3] (0.1 mg/kg) it was 65 min. For the same compound, the “Increase in coronary blood flow” value stood at 103% with coronary blood flow [3] (0.05 mg/kg) and 150% with coronary blood flow [3] (0.1 mg/kg). Further, in the data set on coronary blood flow [3] (in words), the Coronarodilating effect result is reported as “pronounced coronarodilatory action; also recorded: capable of producing a coronarodilating effect”. The “Coronarodilating effect compared with Adalate” value with coronary blood flow [3] (in words) is “comparable with that of Adalate; also recorded: comparable with the coronarodilatory action of Adalate”.
